Results on 8 compounds are retold here after PubChem BioAssay (NCI).

Each structure is given as a SMILES string.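 Method: 48-hour compound exposure of cells in 96-well plates, five concentrations, linear interpolation of endpoints. At the GI50, growth is halved. At the TGI there is no net growth.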

Holding throughout (assay): DTP human tumour cell line panel, 48 h
Assay [1] has as its system HOP-62 NSCLC.
The test system of assay [2] is HT29 colon.
For assay [3], the system named is U251 CNS.
The test system of assay [4] is SR leukemia.
For assay [5], the system named is OVCAR-5 ovarian.
Assay [6] relates to BT-549 breast.
The test system of assay [7] is NCI-H460 lung.
For assay [8], the system named is SF-295 CNS.
Assay [9] has as its system HCT-15 colon.
In assay [10] the test system is HS 578T breast.

With `COc1cc(C2=N/C(=C/c3cccs3)C(=O)O2)cc(OC)c1OC`, the TGI in [1], in [2], in assay [3], in assay [4], in [5] and in [6] was above 100 µM in each case. The TGI in assay [7], in assay [8], in assay [9] and in assay [10] was above 100 µM throughout.

With `O=C(N/N=C/c1ccc(O)cc1O)c1cccc(Nc2ccnc(C(F)(F)F)c2)c1`, the GI50 in assay [1] was 0.709 µM; in [2], 5.14 µM; in assay [3], 0.617 µM; in assay [4] it was 290 nM; in [5], 6.28 µM; in assay [6], 1.45 µM. Further, the GI50 is 3060 nM in [7], 1.88 µM in [8], 2200 nM in [9] and 7.71 µM in assay [10]. Also, the TGI is 24.7 µM in assay [1]; above 100 µM in assay [2]; 49 µM in assay [3]; 6.34 µM in assay [4]; 66.8 µM in [5]; 50.8 µM in assay [6]. In addition, the TGI in [7] turned out to be 11.3 µM; in assay [8] it was 45.8 µM; in assay [9] it was 51.7 µM; in [10], 46.7 µM.

Consider `CCOC(=O)C#Cc1c(C(=O)OCC)nnn1Cc1ccc([N+](=O)[O-])cc1`, for which the GI50 was 17.3 µM in assay [1]; 8.89 µM in assay [3]; 1150 nM in assay [4]; 8.34 µM in assay [5]; 5.07 µM in [6]; 11100 nM in assay [7]. For the same compound, the GI50 in assay [8] is 18.9 µM; in assay [9] it was 1660 nM; in assay [10] it was 19.4 µM. The TGI in [1] stood at 31.6 µM; in assay [3], 20.9 µM; in assay [4], 4.4 µM; in assay [5], 22.7 µM; in assay [6], 17 µM; in assay [7] it was 28 µM. For the same compound, the results for the TGI in assay [8], in assay [9] and in assay [10] were 38.1 µM, 3.29 µM and 61.4 µM, respectively.

For `Oc1ccc(C2c3ccccc3Oc3ccccc32)c2cccnc12`, the GI50 was 0.979 µM in assay [1]; 1.1 µM in assay [2]; 0.845 µM in [3]; 1970 nM in [4]; 3.15 µM in assay [6]; 470 nM in assay [7]. The GI50 was 0.499 µM in [8], 468 nM in assay [9] and 3.45 µM in assay [10]. Also, the TGI in [1] is above 100 µM; in assay [2] it was above 100 µM; in assay [3], above 100 µM; in assay [4], above 100 µM; in assay [6], above 100 µM; in [7] it was 5.1 µM. For the same compound, the TGI in [8], in [9] and in assay [10] was above 100 µM each time.

For the compound `Cc1ccc(NC(=O)CSc2nnc3n(Cc4ccccc4)c(=O)c4c(C)c(C(N)=O)sc4n23)cc1`, the GI50 in assay [1] was 21 µM; in assay [2] it was above 100 µM; in [3], 5.17 µM; in assay [4], 16400 nM; in assay [5], 64.7 µM; in assay [6], 12.7 µM. In addition, the GI50 was 26.7 µM in assay [8], above 100000 nM in assay [9] and 5.22 µM in [10]. In addition, the total growth inhibition concentration (TGI) in assay [1] was 56 µM; in assay [2] it was above 100 µM; in [3] it was 52.9 µM; in assay [4] it was 34.2 µM; in assay [5], above 100 µM; in assay [6], 72 µM. The TGI in [8] was 76.6 µM; in [9], above 100 µM; in assay [10], 77.6 µM.

In the case of `O=C(NO)[C@@H](Cc1ccccc1)NS(=O)(=O)c1ccc(-c2ccccc2)cc1`, the GI50 is 18.1 µM in [1]; above 25 µM in assay [2]; 21.3 µM in [3]; 7.13 µM in assay [5]; above 25 µM in assay [6]; 13600 nM in assay [7]. In addition, the GI50 in [8] is above 25 µM; in assay [9] it was above 25000 nM; in assay [10], above 25 µM. Further, the total growth inhibition concentration (TGI) in [1], in [2], in assay [3], in [5], in [6] and in [7] was above 25 µM each time. Also, the TGI in [8], in [9] and in assay [10] was above 25 µM in each case.

Take `Oc1c(Cl)cc(Cl)cc1C(c1cc(Cl)cc(Cl)c1O)C(Cl)(Cl)Cl`: the GI50 in assay [1] was 3.77 µM; in assay [2], 3.03 µM; in [3] it was 2.52 µM; in assay [5], 3.27 µM; in assay [6] it was 2.27 µM; in assay [7] it was 2010 nM. Further, the GI50 in [8] is 1.35 µM; in assay [9] it was 825 nM; in [10], 2.28 µM. Besides, the TGI in [1] was determined as 15 µM; in [2], 11.4 µM; in assay [3] it was 14.4 µM; in [5], 14.5 µM; in assay [6], 6.93 µM; in assay [7] it was 9.38 µM. The figures for the TGI in assay [8], in assay [9] and in assay [10] were 3.53 µM, 13.8 µM and 10.4 µM, respectively.

With `CC([C@H]1CCC2C3CCC4C[C@@H](N)CC[C@]4(C)C3CC[C@@]21C)N(C)C` (stereo partly drawn), the GI50 in [1] is 6.1 µM; in assay [2], 1.29 µM; in assay [3], 3.61 µM; in assay [5], 17.5 µM; in assay [6] it was 5.9 µM; in [7] it was 2400 nM. The GI50 in assay [8] is 6.46 µM; in assay [9], 1590 nM; in assay [10], 3.35 µM. In addition, the TGI in [1] is 12 µM; in assay [2] it was 5.59 µM; in [3], 15.6 µM; in assay [5] it was 41.4 µM; in assay [6], 28.1 µM; in [7] it was 6.04 µM. For the same compound, the TGI in assay [8] was determined as 22.5 µM; in [9], 4.72 µM; in assay [10], 16.1 µM.

One may read the TGI as the concentration giving total growth inhibition. A low value points to more potent growth arrest. Broadly, the GI50 is the concentration at which growth is held to half of that of the control.
